pIC50: −log10 of the molar value.
Key:
[1] = target: T1, NADP-dependent malic enzyme, mitochondrial (Homo sapiens, UniProt Q16798)
T1 sequence (Q16798 whole entry): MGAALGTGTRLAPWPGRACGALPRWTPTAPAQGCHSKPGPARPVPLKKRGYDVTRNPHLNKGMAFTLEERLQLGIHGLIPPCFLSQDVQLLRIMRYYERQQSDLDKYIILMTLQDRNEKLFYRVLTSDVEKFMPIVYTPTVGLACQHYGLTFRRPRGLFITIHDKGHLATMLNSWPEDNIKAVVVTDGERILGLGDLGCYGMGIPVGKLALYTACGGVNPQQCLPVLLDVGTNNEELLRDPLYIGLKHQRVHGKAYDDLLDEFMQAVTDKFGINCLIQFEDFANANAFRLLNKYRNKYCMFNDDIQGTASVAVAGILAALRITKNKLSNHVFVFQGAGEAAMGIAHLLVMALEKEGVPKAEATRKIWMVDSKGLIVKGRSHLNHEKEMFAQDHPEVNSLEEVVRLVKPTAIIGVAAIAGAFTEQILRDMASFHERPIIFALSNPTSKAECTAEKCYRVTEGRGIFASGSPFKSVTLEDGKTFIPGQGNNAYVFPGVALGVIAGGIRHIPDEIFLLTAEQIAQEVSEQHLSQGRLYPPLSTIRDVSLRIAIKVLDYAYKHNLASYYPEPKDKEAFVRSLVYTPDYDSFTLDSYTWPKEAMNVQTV
Description: (§2) Inhibition of His-tagged human recombinant ME3 (26 to 604 residues) using L-malate and beta-NADP+ as substrate preincubated with enzyme for 5 mins followed by beta-NADP+ challenge and incubated under shaking for 5 mins followed by incubation for 3 hrs without shaking by resorufin dye based fluorescence analysis

[2] = target: T2, NADP-dependent malic enzyme (Homo sapiens, UniProt P48163); test: (§1) Inhibition of His-tagged human recombinant full length ME1 using L-malate and beta-NADP+ as substrate preincubated with enzyme for 5 mins followed by beta-NADP+ challenge and incubated under shaking for 5 mins followed by incubation for 2 hrs without shaking by resorufin dye based fluorescence analysis; conditions: for pIC50: read-out: IC50
T2 sequence (P48163 whole entry): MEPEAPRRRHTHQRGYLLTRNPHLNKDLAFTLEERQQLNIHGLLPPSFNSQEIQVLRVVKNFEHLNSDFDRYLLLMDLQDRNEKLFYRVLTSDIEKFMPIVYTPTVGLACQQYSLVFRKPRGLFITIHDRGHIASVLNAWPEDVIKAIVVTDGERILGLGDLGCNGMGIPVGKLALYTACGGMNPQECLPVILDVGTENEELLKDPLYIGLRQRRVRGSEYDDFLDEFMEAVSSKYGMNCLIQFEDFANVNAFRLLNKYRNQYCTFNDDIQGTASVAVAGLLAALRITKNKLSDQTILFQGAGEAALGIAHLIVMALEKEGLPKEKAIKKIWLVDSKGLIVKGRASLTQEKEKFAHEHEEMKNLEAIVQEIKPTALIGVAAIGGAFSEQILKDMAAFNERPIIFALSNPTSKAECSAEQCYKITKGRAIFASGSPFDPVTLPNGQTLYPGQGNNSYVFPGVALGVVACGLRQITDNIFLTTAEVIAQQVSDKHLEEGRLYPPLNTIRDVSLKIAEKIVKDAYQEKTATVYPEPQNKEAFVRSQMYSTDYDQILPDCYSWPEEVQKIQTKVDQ

[3] = Selectivity for SMAD4/ME2-null human BXPC-3 cells over human HCE-T cells
[4] = target: NAD-dependent malic enzyme, mitochondrial (Homo sapiens, UniProt P23368); test: as §1, with “ME2” for “ME1”, “beta-NAD+” for “beta-NADP+”; conditions: for pIC50: read-out: IC50
Chain of NAD-dependent malic enzyme, mitochondrial (P23368 whole entry): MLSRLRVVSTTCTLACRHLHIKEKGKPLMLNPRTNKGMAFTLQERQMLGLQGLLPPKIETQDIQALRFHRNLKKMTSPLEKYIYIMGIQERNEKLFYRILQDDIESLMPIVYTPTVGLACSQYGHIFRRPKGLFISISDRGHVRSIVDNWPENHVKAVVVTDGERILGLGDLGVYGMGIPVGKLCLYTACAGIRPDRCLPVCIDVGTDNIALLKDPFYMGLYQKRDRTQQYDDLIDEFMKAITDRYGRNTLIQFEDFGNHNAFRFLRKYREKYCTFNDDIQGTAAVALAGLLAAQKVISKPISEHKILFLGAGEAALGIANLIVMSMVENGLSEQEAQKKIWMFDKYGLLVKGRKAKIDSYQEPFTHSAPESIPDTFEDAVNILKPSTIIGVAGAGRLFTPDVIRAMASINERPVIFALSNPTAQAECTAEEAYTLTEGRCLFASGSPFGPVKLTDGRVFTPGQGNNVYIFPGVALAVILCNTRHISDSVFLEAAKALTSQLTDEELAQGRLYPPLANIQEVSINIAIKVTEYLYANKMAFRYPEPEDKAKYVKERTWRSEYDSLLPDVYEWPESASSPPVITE

BXPC-3 [5] = test: cells; conditions: Homo sapiens, BXPC-3, 72 h, read-out: INH
Description: Antiproliferative activity against SMAD4/ME2-null human BXPC-3 cells assessed as inhibition of cell growth at 10 uM incubated for 72 hrs by CellTiter-Glo luminescence assay

BXPC-3 [6] = test: Antiproliferative activity against SMAD4/ME2-null human BXPC-3 cells assessed as inhibition of cell growth at 1 uM incubated for 72 hrs by CellTiter-Glo luminescence assay; format: functional
[7] = target: T3, NADP-dependent malic enzyme, mitochondrial (Homo sapiens) (UniProt Q16798); conditions: dose 0.1 µM, time 190.0 min
T3 sequence (whole entry): T1 sequence (Q16798 whole entry)

BXPC-3 [8] = test: cells; conditions: Homo sapiens, BXPC-3, 72 h
Description: Antiproliferative activity against SMAD4/ME2-null human BXPC-3 cells assessed as inhibition of cell growth incubated for 72 hrs by CellTiter-Glo luminescence assay

[9] = Cytotoxicity against human HCE-T cells assessed as inhibition of cell growth; format: toxicity, cell-based
[10] = target: T1, NADP-dependent malic enzyme, mitochondrial; remark: listed apart in the source
Description: as §2

Compound	pIC50 [1]	pIC50 [2]	pIC50 [4]	Selectivity ratio [3]	inhibition at 10 µM (BXPC-3 [5]) [%]	further results
O=C(Cc1ccc(C(F)(F)F)cc1)N1CCN(c2ccc(O)cc2)CC1	6.48	6.68	6.39	5	39	–
O=C(C1CC1)N1CCN(c2ccc(O)cn2)CC1	–	–	–	–	10	inhibition at 1 µM (BXPC-3 [6]): 0%; inhibition [7]: 14%
O=C(Cc1ccccc1)N1CCN(c2ccc(O)cn2)CC1	6.70	5.80	6.01	–	–	–
CC(C)(CC(=O)N1CCN(c2ccc(O)cn2)CC1)c1ccc(Cl)cc1	6.44	5.82	5.55	5	97	pIC50 (BXPC-3 [8]): 5.27; pIC50 [9]: < 4.52
O=C(Nc1nnn[nH]1)c1cc(-c2ccccc2)nc2ccccc12	5.29	4.86	5.77	–	–	–
O=C(CCc1ccccc1)N1CCN(c2ncc(O)cn2)CC1	–	–	–	–	–	IC50 [10]: Not Active; IC50 [2]: Not Active; IC50 [4]: Not Active
O=C(Cc1ccccc1)N1CCN(c2ccc(O)nc2)CC1	–	–	–	–	–	IC50 [10]: Not Active; IC50 [2]: Not Active; IC50 [4]: Not Active
COc1ccc(N2CCN(C(=O)CCc3ccccc3)CC2)nc1	–	–	–	–	13	–
CCCCOc1ccc(CCC(=O)N2CCN(c3ccc(O)cn3)CC2)cc1	6.41	5.88	5.41	5	7	pIC50 (BXPC-3 [8]): 4.82
O=C(Cc1ccccc1)N1CCN(c2ccc(O)nn2)CC1	–	–	–	–	–	IC50 [10]: Not Active; IC50 [2]: Not Active; IC50 [4]: Not Active
COc1ccc(CCC(=O)N2CCN(c3ccc(O)cn3)CC2)cc1	6.33	5.72	5.60	5	13	–
O=C(CCc1ccc(F)cc1)N1CCN(c2ccc(O)cn2)CC1	6.39	5.76	5.78	5	48	–

The remaining compounds from weak to strong by pIC50 [1], led by results:

pIC50 [1]	pIC50 [2]	pIC50 [4]	Compound	Selectivity ratio [3]	inhibition at 10 µM (BXPC-3 [5]) [%]	further results
6.80	5.88	5.89	O=C(CCc1cccs1)N1CCN(c2ccc(O)cn2)CC1	5	76	pIC50 (BXPC-3 [8]): 5.34; pIC50 [9]: 4.60
6.82	6.66	6.70	O=C1CC(N2CCN(c3ccc(O)cc3)CC2)C(=O)N1c1ccccc1 (configuration not stated)	5	0	–
6.89	6.20	6.41	O=C(COc1ccccc1)N1CCN(c2ccc(O)cc2)CC1	5	55	–
6.89	–	–	O=C(Nc1ccccc1)C1CCN(c2ccc(O)cc2)CC1	–	–	–
6.89	6.82	6.82	O=C(Cc1ccc(Cl)cc1)N1CCN(c2ccc(O)cc2)CC1	5	80	pIC50 (BXPC-3 [8]): 5.24
7.10	6.77	6.64	O=C(/C=C/c1ccccc1)N1CCN(c2ccc(O)cc2)CC1	5	29	–
7.15	–	–	O=C(Cc1ccccc1)NC1CCN(c2ccc(O)cc2)CC1	–	–	–

Source: ChEMBL document CHEMBL5223163, “In the Quest for Potent and Selective Malic Enzyme 3 Inhibitors for the Treatment of Pancreatic Ductal Adenocarcinoma” (ACS Med Chem Lett, 2023)
